Measurements as given in patent US10647687B2, “Spiropyrazine derivatives as inhibitors of non-apoptotic regulated cell-death” (Helmholtz Zentrum München Deutsches Forschungszentrum für …, priority 2014, dated 2020).

What was measured:
SH-SY5Y cells = assay: Specificity: TNF-alpha-induced apoptosis in SH-SY5Y cells (Example B.3); type: cell-based, human; conditions: compound 1 μM, TNF-alpha 10 ng/mL, FIG. 1
Procedure: SH-SY5Y cells were propagated and seeded in 96-well plates, together with compound N-1, N-2, N-10 of Table 1-N (FIG. 1A), compound O/S-6 or O/S-3 of Table 1-O/S (FIG. 1B), or compound C-12, C-91, or C-205 of Table 1-C (FIG. 1C) (each 1 μM) and TNF-alpha was added (final concentration: 10 ng/mL) to induce apoptosis. The apoptosis and pan-caspase inhibitor z-vad (final concentration: 50 μM) and the necroptosis inhibitor Necrostatin-1 (Nec-1; final concentration: 5 μM) were used for comparison. Control wells were established with vehicle only (DMSO), with and without treatment with TNF-alpha to induce apoptosis. Cells were incubated, and cell survival was detected and quantified. Percentage cell survival after TNF-alpha-induced apoptosis is shown (error bars indicate standard deviation (SD)).
Briefly, SH-SY5Y cells were propagated and seeded in 96-well plates, together with the compound to be tested (1 μM), generally as described in Example B.1, except they were seeded at 1,000 cell/well and instead of BSO, TNF-alpha (Invitrogen) was added to a final concentration of 10 ng/mL to induce apoptosis. The apoptosis and pan-caspase inhibitor Z-VAD-fink (Enzo Life Science; final concentration 50 μM) and the necroptosis inhibitor Necrostatin-1 (Nec-1; Enzo Life Science; final concentration 5 μM) were used for comparison. Control wells were established with vehicle only (DMSO), with and without treatment with TNF-alpha to induce apoptosis. Cells were incubated, and cell survival was detected and quantified as described in Example B.1.

C57BL/6 mice [1] = assay: Liver ischemia-reperfusion injury model (Example C.1); type: in vivo, mouse; conditions: single i.p. dose 10 mg/Kg
Procedure: FIG. 2: Efficacy of a compound disclosed herein in an animal model of liver IRI. […] The “Sham” bar represents the data from control animals that were treated to the same protocol but without atraumatic clipping. Errors shown are SEM. Significant differences are seen between IRI+vehicle compared to IRI+Cmpd, as well as between IRI+vehicle compared to Sham+vehicle.
Briefly, to test such utility of compounds disclosed herein, ischemia is induced in the liver of 6-8 week old C57BL/6 mice (Charles River) by midline laparotomy whereby the blood supply to the left and median lobes of the liver is interrupted via atraumatic clipping for 90 min, followed by reperfusion for a period of 24 h. After reperfusion, but prior to final abdominal closure, animals are treated with a single i.p. dose of the compound to be tested (10 mg/Kg), or with vehicle (DMSO) as negative control. […] The “Sham” bar represents the data from control animals that were treated to the same protocol but without atraumatic clipping.

C57BL/6 mice [2] = assay: Traumatic brain injury, controlled cortical impact model (Example C.5); type: in vivo, mouse; conditions: compared to vehicle control, 24 h after CCI, FIG. 4
Procedure: FIG. 4: Efficiency of a compound disclosed herein in an animal model of traumatic brain injury.
Briefly, to test such utility of compounds disclosed herein, male C57BL/6 mice are anesthetised prior to the induction of trauma. Core body temperature is maintained at 37° C. using a feedback-controlled heating pad connected to a rectal probe. To induce trauma, a craniotomy is prepared over the right parietal cortex. Controlled cortical impact (CCI) is delivered perpendicular to the surface of the brain with a custom-made CCI applicator for mice using the following parameters: 8 m/s velocity, 3 mm diameter, 1 mm brain displacement and 150 ms duration. Following CCI, the skull is closed by affixing the removed bone flap using veterinary-grade tissue glue (Vetbond, 3M, St. Paul, Minn.). Compounds are administered at 1 mg/Kg or 10 mg/Kg (dissolved in 40% PEG) 15 minutes after TBI induction and 40% PEG is included as vehicle control. The animals are recovered from anesthesia in an incubator heated to 33° C. Animals are sacrificed and the brain is removed 24 h after CCI and immediately frozen on crushed dry ice and stored at −80° C. […] The sections are stained with cresyl violet for quantifying the area of contused brain, and contusion volume is calculated and the effect of the compounds tested observed following analysis of such data.

C57BL/6 mice [3] = assay: Kidney ischemia-reperfusion injury model (Example C.2); type: in vivo, mouse; conditions: dose of both 1 and 10 mg/kg, compared to vehicle control, FIG. 3
Procedure: FIG. 3: Efficacy of a compound disclosed herein in an animal model of kidney IRI.
Briefly, to test such utility of compounds disclosed herein, ischemia is induced in the kidney of 6-8 week old C57BL/6 mice by interruption of the blood supply to the kidney via reversible clipping of the Arteria renalis for 30 min, followed by reperfusion for a period of 24 h. Mice are treated with compound (or vehicle control) generally as described in Example C.1 at 1 hour prior to and four hours after abdomal closure and once daily over a period of 14 days. Markers to be investigated for IRI of kidney include […] creatinine levels in the serum along with histopathological analysis.

Clc1cccc(CNC2=Nc3ccccc3NC23CCNCC3)c1 [N-2]
Percentage cell survival after TNF-alpha-induced apoptosis (SH-SY5Y cells): Non-inhibition of apoptotic cell-death | serum marker for liver cell damage GPT (C57BL/6 mice [1]; liver IRI, compared to vehicle control, FIG. 2A): significant reduction | serum marker for liver cell damage GOT (C57BL/6 mice [1]; liver IRI, compared to vehicle control, FIG. 2B): significant reduction | serum GPT and GOT, IRI+Cmpd compared to Sham+vehicle (C57BL/6 mice [1]; FIG. 2): No significant difference | contusion volume in the brains of mice following traumatic brain injury (C57BL/6 mice [2]): trend of a (non-significant) positive effect | survival of mice suffering kidney-ischemic reperfusion injury (C57BL/6 mice [3]): Improved survival
